Reference: patent US5880146A, “Inhibition of IL-12-induced IFN-γ synthesis by specific bis-phenol compounds as a method of immune modulation” (Fuji ImmunoPharmaceuticals Corporation, priority 1995, dated 1999)

System: T cell response of human PBMC to allogenic stimulation by Namalwa cells
Assay: Mixed Lymphocyte Reaction (proliferation and IFN-γ secretion)
Type: cell-based
Conditions: 6 days; FIGS. 1-3
Experimental: This reaction measures the T cell response to allogenic stimulation by a mismatch of class II histocompatability antigens. This is triggered through the T cell receptor and activates the T cell to secrete and proliferate in response to endogenous IL-2. IFN-γ is also made in response to this stimulation and accumulates in the culture medium. Compounds are tested for their ability to block the proliferation and response to antigenic stimulation as well as their ability to produce IFN-γ as follows. A human B cell ine expressing class II antigen, Namalwa (American Type Culture Collection), is incubated for 2 hr at 37° C. in RPMI-10 containing mitomycin C (50 μg/ml). These cells are washed four times by centrifugation and resuspension (10^6 cells/ml) in SF-RPMI medium and are added to the wells of 96-well plate (50 μl/well) as stimulators. Mitomycin treatment prevents these cells from proliferating in the assay. Fresh PBMC are prepared as described above in example 1, but are not activated with PHA. Instead they are resuspended at 10^6 cells/ml and 100 μl is added per well. Dilutions of test compounds are added (50 μl/well) to give a final volume of 200 μl and the plates are incubated for 6 days at 37° C. During the last 18 hr, ^3 H-thymidine (DuPont-NEN- 1 μCi/well) is added as a measure of cell proliferation, cultures are collected using a cell harvester (Packard), and scintillation fluid is added prior to counting in a Packard Top Count scintillation counter. A sample of medium is also collected for measurement of IFN-γ production prior to the addition of ^3 H-thymidine for use as a negative control.

Nc1nc2nn[nH]c2c(=O)[nH]1 [Compound 8-azaguanine, 8-azaguanine, reference compound]
inhibition of IFN-γ secretion versus cell proliferation (in words): general immunosuppressant
